Experimental data from US8859569B2, “Substituted annellated pyrimidines and use thereof” (Bayer Pharma Aktiengesellschaft, priority 2011, dated 2014).

What was measured:
aorta rings = assay: Vessel-relaxing action in vitro (aorta rings, phenylephrine contraction); conditions: Oryctolagus cuniculus, concentration required to reduce phenylephrine-induced contraction of rabbit aorta rings by 50%
Description: B-1. Vessel-relaxing Action in vitro
Rabbits are stunned with a blow on the back of the neck and exsanguinated. The aorta is removed, freed from adhering tissue, separated into rings with a width of 1.5 mm, and placed individually, with preloading, in 5-ml organ baths with carbogen-gassed Krebs-Henseleit solution at 37° C. with the following composition (mM in each case): sodium chloride: 119; potassium chloride: 4.8; calcium chloride dihydrate: 1; magnesium sulphate heptahydrate: 1.4; potassium dihydrogen phosphate: 1.2; sodium hydrogen carbonate: 25; glucose: 10. The contraction force is recorded with Statham UC2 cells, amplified and digitized via an A/D converter (DAS-1802 HC, Keithley Instruments Munich) and recorded in parallel on a continuous-line recorder. To produce contraction, phenylephrine is added to the bath cumulatively in increasing concentration. After several control cycles, the test substance is added in increasing dosage in each subsequent pass and the level of contraction is compared with the level of contraction reached in the immediately preceding pass. This is used for calculating the concentration that is required to reduce the level of the control value by 50% (IC50 value). The standard application volume is 5 μl, and the proportion of DMSO in the bath solution corresponds to 0.1%.

[1] = target: T1, recombinant guanylate cyclase reporter cell line (Rattus norvegicus, UniProt P19686+P20595); assay: Action on recombinant guanylate cyclase reporter cell line; format: cell-based
T1 construct: expressed in transfected cells
T1 sequence (P20595 1-619): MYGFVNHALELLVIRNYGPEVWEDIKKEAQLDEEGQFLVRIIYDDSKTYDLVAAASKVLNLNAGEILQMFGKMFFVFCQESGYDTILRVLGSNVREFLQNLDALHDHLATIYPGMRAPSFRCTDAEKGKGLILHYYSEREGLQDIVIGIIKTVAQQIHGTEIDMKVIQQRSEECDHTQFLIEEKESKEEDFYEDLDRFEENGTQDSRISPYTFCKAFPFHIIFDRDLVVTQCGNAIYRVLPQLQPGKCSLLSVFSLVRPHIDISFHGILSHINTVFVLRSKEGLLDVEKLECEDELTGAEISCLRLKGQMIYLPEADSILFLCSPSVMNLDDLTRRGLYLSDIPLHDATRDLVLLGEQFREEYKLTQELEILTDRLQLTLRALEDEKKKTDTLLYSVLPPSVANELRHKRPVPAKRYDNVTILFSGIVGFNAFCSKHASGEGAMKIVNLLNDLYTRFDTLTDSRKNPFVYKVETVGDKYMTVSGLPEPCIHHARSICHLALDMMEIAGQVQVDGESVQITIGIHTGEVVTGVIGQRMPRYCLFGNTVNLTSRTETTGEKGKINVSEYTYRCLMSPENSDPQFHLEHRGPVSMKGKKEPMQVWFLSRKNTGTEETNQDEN
T1 sequence (P19686 1-690): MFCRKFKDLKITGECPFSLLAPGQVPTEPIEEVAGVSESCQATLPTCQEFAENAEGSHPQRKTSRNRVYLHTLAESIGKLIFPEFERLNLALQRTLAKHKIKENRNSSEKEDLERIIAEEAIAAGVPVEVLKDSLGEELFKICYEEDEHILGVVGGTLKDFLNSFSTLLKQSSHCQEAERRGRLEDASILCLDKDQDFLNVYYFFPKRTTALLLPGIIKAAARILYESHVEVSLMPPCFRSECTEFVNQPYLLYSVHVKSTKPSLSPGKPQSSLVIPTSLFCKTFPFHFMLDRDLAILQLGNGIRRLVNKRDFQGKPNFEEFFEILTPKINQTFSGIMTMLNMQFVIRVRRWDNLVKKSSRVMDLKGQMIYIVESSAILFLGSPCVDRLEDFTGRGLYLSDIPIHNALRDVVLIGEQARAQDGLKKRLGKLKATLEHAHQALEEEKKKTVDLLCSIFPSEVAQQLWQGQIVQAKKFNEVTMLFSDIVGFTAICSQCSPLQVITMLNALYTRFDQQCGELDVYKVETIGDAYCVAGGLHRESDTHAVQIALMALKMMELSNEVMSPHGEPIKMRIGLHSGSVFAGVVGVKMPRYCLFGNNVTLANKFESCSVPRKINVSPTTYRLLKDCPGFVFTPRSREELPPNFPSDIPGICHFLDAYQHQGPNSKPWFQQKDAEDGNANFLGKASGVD
Description: B-2. Action on Recombinant Guanylate Cyclase Reporter Cell Line
The cellular action of the compounds according to the invention is determined on a recombinant guanylate cyclase reporter cell line, as described in F. Wunder et al., Anal. Biochem. 339, 104-112 (2005).

[2] = target: T2, human phosphodiesterase 5 (PDE-5) (Homo sapiens, UniProt O76074); assay: Inhibition of human phosphodiesterase 5 (PDE-5), SPA assay; format: biochemical; conditions: PDE-5 preparation from human platelets, [8-3H]cGMP substrate
T2 construct: PDE-5 preparations are obtained from human platelets by lysis; from tissue; host or cells: human platelets
In short: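 PDE-5 partially purified from human platelets by Mono Q chromatography, diluted so under 70% of [8-3H]cGMP (0.025 μCi) converted. Compounds at 4 μM to 0.0018 μM final, Tris-HCl pH 7.5 with MgCl2, 60 min at room temperature. Yttrium SPA beads stop reaction; IC50 from concentration–inhibition plots.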

SMILES	IC50 (aorta rings) [nM]	MEC (minimal effective concentration) [1] [μm]	IC50 [2] [nM]
CC1(C)C(=O)Nc2nc(-c3nn(Cc4ccccc4F)c4ncc(F)cc34)nc(NCC3CC3)c21 [Example 10, 4-[(Cyclopropylmethyl)amino]-2-[5-fluoro-1-(2-fluorobenzyl)-1H-pyrazolo[3,4-b]pyridin-3-yl]-5,5-dimethyl-5,7-dihydro-6H-pyrrolo[2,3-d]pyrimidin-6-one]	552	0.3	52
CC1(C)C(=O)Nc2nc(-c3nn(Cc4ccccc4F)c4ncc(F)cc34)nc(NCC(F)(F)F)c21 [Example 11, 2-[5-Fluoro-1-(2-fluorobenzyl)-1H-pyrazolo[3,4-b]pyridin-3-yl]-5,5-dimethyl-4-[(2,2,2-trifluoroethyl)amino]-5,7-dihydro-6H-pyrrolo[2,3-d]pyrimidin-6-one]	663	0.3	48
CC1(C)C(=O)Nc2nc(-c3nn(Cc4ncccc4F)c4ncc(F)cc34)nc(NCCC(F)(F)F)c21 [Example 12, 2-{5-Fluoro-1-[(3-fluoropyridin-2-yl)methyl]-1H-pyrazolo[3,4-b]pyridin-3-yl}-5,5-dimethyl-4-[(3,3,3-trifluoropropyl)amino]-5,7-dihydro-6H-pyrrolo[2,3-d]pyrimidin-6-one]	631	0.1	50
CC1(C)C(=O)Nc2nc(-c3nc(Cc4c(F)ccc(F)c4F)n4cc(Cl)ccc34)nc(NCCC(F)(F)F)c21 [Example 13, 2-[6-Chloro-3-(2,3,6-trifluorobenzyl)imidazo[1,5-a]pyridin-1-yl]-5,5-dimethyl-4-[(3,3,3-trifluoropropyl)amino]-5,7-dihydro-6H-pyrrolo[2,3-d]pyrimidin-6-one]	4970	0.1	80
CC1(C)C(=O)Nc2nc(-c3nn(Cc4ncccc4F)c4ncc(F)cc34)nc(N3CC(F)C3)c21 [Example 15, 4-(3-Fluoroazetidin-1-yl)-2-{5-fluoro-1-[(3-fluoropyridin-2-yl)methyl]-1H-pyrazolo[3,4-b]pyridin-3-yl}-5,5-dimethyl-5,7-dihydro-6H-pyrrolo[2,3-d]pyrimidin-6-one]	453	1.0	430
CC1(C)C(=O)Nc2nc(-c3nn(Cc4ncccc4F)c4ncc(F)cc34)nc(NCC(F)(F)F)c21 [Example 16, 2-{5-Fluoro-1-[(3-fluoropyridin-2-yl)methyl]-1H-pyrazolo[3,4-b]pyridin-3-yl}-5,5-dimethyl-4-[(2,2,2-trifluoroethyl)amino]-5,7-dihydro-6H-pyrrolo[2,3-d]pyrimidin-6-one]	126	0.1	13
CC1(C)C(=O)Nc2nc(-c3nn(Cc4ncccc4F)c4ncc(F)cc34)nc(NCC3CC3)c21 [Example 17, 4-[(Cyclopropylmethyl)amino]-2-{5-fluoro-1-[(3-fluoropyridin-2-yl)methyl]-1H-pyrazolo[3,4-b]pyridin-3-yl}-5,5-dimethyl-5,7-dihydro-6H-pyrrolo[2,3-d]pyrimidin-6-one]	200	0.1	24
CC1(C)C(=O)Nc2nc(-c3nn(Cc4ccccc4F)c4ncc(F)cc34)nc(NCCCC(F)(F)F)c21 [Example 18, 2-[5-Fluoro-1-(2-fluorobenzyl)-1H-pyrazolo[3,4-b]pyridin-3-yl]-5,5-dimethyl-4-[(4,4,4-trifluorobutyl)amino]-5,7-dihydro-6H-pyrrolo[2,3-d]pyrimidin-6-one]	2720	0.03	120
CC1(C)C(=O)Nc2nc(-c3nn(Cc4ccccc4F)c4c3CCC4)nc(NCC(F)(F)F)c21 [Example 19, 2-[1-(2-Fluorobenzyl)-1,4,5,6-tetrahydrocyclopenta[c]pyrazol-3-yl]-5,5-dimethyl-4-[(2,2,2-trifluoroethyl)amino]-5,7-dihydro-6H-pyrrolo[2,3-d]pyrimidin-6-one]	1280	0.3	280
CC1(C)C(=O)Nc2nc(-c3nn(Cc4ccccc4F)c4c3CCC4)nc(NCCC(F)(F)F)c21 [Example 20, 2-[1-(2-Fluorobenzyl)-1,4,5,6-tetrahydrocyclopenta[c]pyrazol-3-yl]-5,5-dimethyl-4-[(3,3,3-trifluoropropyl)amino]-5,7-dihydro-6H-pyrrolo[2,3-d]pyrimidin-6-one]	1870	0.3	900
CCN1CCN(c2nc(-c3nn(Cc4ccccc4F)c4ncccc34)nc3c2C(C)(C)C(=O)N3)C1=O [Example 21, 4-(3-Ethyl-2-oxoimidazolidin-1-yl)-2-[1-(2-fluorobenzyl)-1H-pyrazolo[3,4-b]pyridin-3-yl]-5,5-dimethyl-5,7-dihydro-6H-pyrrolo[2,3-d]pyrimidin-6-one]	100	0.03	400
CC1(C)C(=O)Nc2nc(-n3nc(Cc4ccccc4F)c4ccccc43)nc(O)c21 [Example 22, 2-[3-(2-Fluorobenzyl)-1H-indazol-1-yl]-4-hydroxy-5,5-dimethyl-5,7-dihydro-6H-pyrrolo[2,3-d]pyrimidin-6-one]	530	0.03	580
Cc1cc(C)n(-c2nc(-c3nn(Cc4ccccc4F)c4ncccc34)nc3c2C(C)(C)C(=O)N3)n1 [Example 23, 4-(3,5-Dimethyl-1H-pyrazol-1-yl)-2-[1-(2-fluorobenzyl)-1H-pyrazolo[3,4-b]pyridin-3-yl]-5,5-dimethyl-5,7-dihydro-6H-pyrrolo[2,3-d]pyrimidin-6-one]	2860	0.1	1600
CC1(C)C(=O)Nc2nc(-c3nn(Cc4ccccc4F)c4ncccc34)nc(-n3cccc(F)c3=O)c21 [Example 24, 2-[1-(2-Fluorobenzyl)-1H-pyrazolo[3,4-b]pyridin-3-yl]-4-(3-fluoro-2-oxopyridin-1(2H)-yl)-5,5-dimethyl-5,7-dihydro-6H-pyrrolo[2,3-d]pyrimidin-6-one]	573	0.1	100
CC1(C)C(=O)Nc2nc(-c3nn(Cc4ccccc4F)c4ncccc34)nc(N3CC(C(F)(F)F)CC3=O)c21 (stereo not drawn) [Example 25, 2-[1-(2-Fluorobenzyl)-1H-pyrazolo[3,4-b]pyridin-3-yl]-5,5-dimethyl-4-[2-oxo-4-(trifluoromethyl)pyrrolidin-1-yl]-5,7-dihydro-6H-pyrrolo[2,3-d]pyrimidin-6-one]	501	0.1	320
